Results taken from patent US11864555B2, “Soil application of crop protection agents” (PIONEER HI-BRED INTERNATIONAL, INC., priority 2017, dated 2024).
Values belong to the compound of their own block, whether it stands above or below them.

What was measured:
[1] = type: in vivo, soybean; settings: delivered via the CRYSTAL GREEN particles
Protocol: The procedure used for Bead #1 was repeated, using CRYSTAL GREEN® fertilizer and the pesticide used was 50% chlorantraniliprole insecticide treatment. Analysis of the amount of chlorantraniliprole for Bead #14 was determined to be 2.15 μg chlorantraniliprole per milligram of bead. Individual rhizotron growth chambers were used as the test apparatus as described before. Beads #13 and 14, or the control solutions were applied to the center area of the soil plug at about 4 mm depth. All the rhizotron chambers were then transferred to the growth room and fit to black utility boxes with precut 4-inch-depth notches located on the left and right rim of the boxes, allowing the chambers to set at about 90 degree upright position. […]
The rhizotrons were maintained in a growth chamber with controlled temperature and light with a 14-hour day/10-hour night diurnal cycle. […] The amount of water or nutrient used was recorded. Plant growth stages were also recorded and photographed periodically. […]
Plant leaflets were harvested 3 times at 24 days (R1 growth stage), 38 days (R4), and 49 days (R5.5) after planting for quantifying the pesticide concentrations. […] Each CPC was quantified by LC-MSMS method using electro-spray positive ionization mode. […] Remaining soil associated with the dried roots was removed and root weight was measured using an analytical balance.

[2] = Aerobic soil degradation of cyantraniliprole in loam soil; type: physicochemical; settings: 90 days, pH 5.7
Protocol: Loam soil had 29% sand, 50% silt, and 21% clay with 2.9% organic matter and a pH of 5.7. […] Soil (20.0 to 50 g) was weighed into individual glass containers and moisture was adjusted to field moisture capacity at approximately 27% by weight by adding de-ionized water to the containers. Afterward, the containers were covered with breathable tape and pre-incubated inside a temperature-controlled incubator at 25° C. for 6 days. The tape allowed free oxygen exchange between the container headspace and ambient air while minimizing soil water loss due to evaporation. […] The incubator temperature was monitored by a digital thermometer and Hobo data logger, and soil water loss was monitored by weighing each sample container during the experiment. […] Soil moisture content was brought back to field capacity once every 1-2 weeks by adding de-ionized water equivalent to the amount of moisture that was lost, monitored by weighing each container every week.
At sampling intervals of 0, 3, 7, 14, 28, 56 and 90 days, three containers from each treatment were removed from the incubator, and the 5 cyantraniliprole-containing particles were collected and transferred to 100 mL polypropylene bottles for extraction. […] Cyantraniliprole was separated by HPLC and quantified by UV detection at 220 nm using an external calibration curve of an analytical standard.

[3] = cited from earlier work
[4] = Aerobic soil degradation of cyantraniliprole in Tama soil; type: physicochemical
Protocol: Aerobic soil degradation of cyantraniliprole in the various beads was determined versus a stock aqueous solution by following the changes in cyantraniliprole concentration over time.
Tama soil (clay-loam soil) was collected and stored in a refrigerator prior to use. […] Soil (10.0 to 68.3 grams) was weighted into glass jars or polypropylene vials and the moisture content was adjusted to 32.4% (Field capacity for this soil) by adding deionized water to the containers. The containers were covered with tape and pre-incubated inside a temperature controlled incubator at 25° C. for 4 days. […] The incubator temperature was monitored by a digital thermometer, and soil water loss was monitored by weighing each sample container during the experiment. […]
At sampling intervals of 0, 3, 7, 14, 21, 28, 35, 56, 100 and 120 days, three containers from each treatment were removed from the incubator, and the four cyantraniliprole-containing particles or pellets in each container were collected and transferred to 100 mL polypropylene bottles for extraction. […] After the overnight extraction, the extracts were allowed to settle and the supernatant was filtered through 0.4 μm pore size polypropylene filters and stored in a −20° C. freezer before quantifying cyantraniliprole. […]

concentrations in leaf samples averaged from 24 to 49 days [1]: 0.097 μg/gram fresh leaves
Compound: CNC(=O)c1cc(Cl)cc(C)c1NC(=O)c1cc(Br)nn1-c1ncccc1Cl [Chlorantraniliprole]

Compound: CNC(=O)c1cc(C#N)cc(C)c1NC(=O)c1cc(Br)nn1-c1ncccc1Cl [Control E, Cyantraniliprole]
cyantraniliprole degraded by day 90 [2]: ~79%

Compound: CO/C=C(/C(=O)OC)c1ccccc1COc1cccc(C(F)(F)F)n1 [Picoxystrobin]
water solubility [3]: 3.25 milligrams/liter

Compound: CNC(=O)c1cc(C#N)cc(C)c1NC(=O)c1cc(Br)nn1-c1ncccc1Cl [stock solution, cyantraniliprole]
cyantraniliprole degraded by day 100 ([4]; 100 days, pH 5.8): ~76%
half-life of biodegradation by soil microbes ([4]; Tama soil, 25° C., aerobic): approximately 43 days
